Results on 17 molecules are retold here after US9175024B2, “Platinum compound having amino or alkylamino-containing succinic acid derivatives as leaving group, preparation method thereof, and use thereof” (BEIJING FSWELCOME TECHNOLOGY DEVELOPMENT CO., LTD., priority 2011, dated 2015).

The subject of one data set is Testis cell ST. In words: MTT cytotoxicity, testis cell ST. The format is cell-based. Conditions: n = 6, Testis cell ST. The procedure:
(§1) Several kinds of tumor cells in exponential growth phase were prepared into single cell suspension, inoculated on 96 pore plat at the density of 4×10^4/hole, cultivated for 24 hours to enable to adhere to wall with 1640 culture medium containing 10% fetal calf serum (complete medium) at 37° C.; the final culture volume was 100 μl. Cell morphology was observed after culture for 24 hours.

In data set [1] the test system is Pulmonary epithelial cell BEAS-2B. In words: MTT cytotoxicity, pulmonary epithelial cell BEAS-2B. Type of data set: cell-based. The conditions noted are these: n = 6, Pulmonary epithelial cell BEAS-2B. The procedure:
as §1

Data set [2] has as its system breast cancer MCF-7. In words: In vivo antitumor activity, breast cancer MCF-7 in nude mice. The conditions noted are these: MCF-7 in female nude mice, once a week, 4 times, tumor weighed 4 weeks later.
For another data set, the system named is normal mice. In words: Acute toxic effect of platinum complex on normal mice (LD50, single intravenous administration). The conditions noted are these: single intravenous administration in 5% glucose solution, 14 days observation, Bliss method. Type of data set: in vivo, Kunming mice. Here is the method:
(§2) Kunming mice at 4˜6 weeks old and at the weight of 18˜22 g were taken, 50% male and 50% female. Embodiment platinum compound was dissolved with 5% glucose solution. […] Mortality and toxicity were observed after administration, totally observing 14 days, LD50 value was calculated with Bliss method according to mortality.

Data set [3] has as its system Breast cancer MCF-7 Cisplatin resistance strain. In words: MTT cytotoxicity, breast cancer MCF-7 cisplatin resistance strain. The format is cell-based. Conditions: n = 6, Breast cancer MCF-7 Cisplatin resistance strain. The procedure:
as §1

Data set [4] deals with Colon cancer SW480. In words: MTT cytotoxicity, colon cancer SW480. Type of data set: cell-based. The conditions noted are these: n = 6, Colon cancer SW480. The procedure: as §1
The subject of data set [5] is Breast cancer MCF-7. In words: MTT cytotoxicity, breast cancer MCF-7. Type of data set: cell-based. The conditions noted are these: n = 6, Breast cancer MCF-7. Here is the method:
as §1

The next data set concerns Gastric cancer MGC803. Put plainly: MTT cytotoxicity, gastric cancer MGC803. The format is cell-based. Conditions: n = 6, Gastric cancer MGC803. The procedure:
as §1

Data set [6] relates to colon cancer SW480. In words: In vivo antitumor activity, colon cancer SW480 in nude mice. The conditions noted are these: SW480 in male nude mice, once a week, 4 times, tumor weighed after 4 weeks. From the text: The calculation formula of tumor inhabitation rate is: […]
The subject of the next data set is Lung cancer A549. In words: MTT cytotoxicity, lung cancer A549. Type of data set: cell-based. The conditions noted are these: n = 6, Lung cancer A549. The procedure:
as §1

A further data set relates to Esophagus cancer ECA109. In words: MTT cytotoxicity, esophagus cancer ECA109. Type of data set: cell-based. Conditions: n = 6, Esophagus cancer ECA109. The procedure: as §1
A further data set relates to Lewis lung cancer. In words: MTT cytotoxicity, Lewis lung cancer. Type of data set: cell-based. The conditions noted are these: n = 6, Lewis lung cancer. Here is the method:
as §1

A further data set relates to Lung cancer H292. Put plainly: MTT cytotoxicity, lung cancer H292. Conditions: n = 6, Lung cancer H292. The format is cell-based. Here is the method: as §1
The next data set is described as follows: physchem. The conditions noted are these: water.
A short description of data set [7]: Acute toxic effect of platinum complex on normal mice (LD50, single intravenous administration). Type of data set: in vivo, Kunming mice. The conditions noted are these: both sexes, Kunming, mouse, in vivo; single intravenous administration in 5% glucose solution, 14 days observation, Bliss method. The procedure:
as §2

The nature of data set [8]: Solubility in water of the embodiment and contrast compounds.

pIC50: −log10 of the molar value. Where “and” joins values, the source holds several entries; their conditions need not be identical. Identical values can stand only once.

With `NC(CC(=O)[O-])C(=O)[O-].NC1CCCCC1N.[Pt+2]` (racemic) [ADP, [DL-2-amino-succinato].[trans-hexamethylenediamine]platinum (II), reference compound], the negative-log IC50 (pIC50) – broadly, −log10 of the IC50, conventionally taken in molar units – in the data set on Testis cell ST was 3.73; in data set [1], 3.97; in data set [3], 3.81; in the data set with Colon cancer SW480 [4], 4.01; with Breast cancer MCF-7 [5] it was 4.14; with Gastric cancer MGC803, 3.80. For the same molecule, the pIC50 was 3.84 in the data set on Lung cancer A549; 4.01 and 3.79 with Esophagus cancer ECA109; 3.79 in the data set with Lewis lung cancer; 4.21 with Lung cancer H292. Besides, the “Tumor inhibition rate (x ± SD)” value in the data set with breast cancer MCF-7 [2] (30 mg (platinum)/kg) is 68.3 ± 10.27 9%; in the data set with colon cancer SW480 [6] (30 mg (platinum)/kg) it was 45.3 ± 11.21%. This molecule gave an LD50 value in the data set on normal mice of 0.332 mmol/kg.

In the case of `CCN(CC)CCC(CC(=O)[O-])C(=O)[O-].NC1CCCCC1N.[Pt+2]` (racemic) [Compound 10, [2-(2-diethyl amino ethyl)-succinato].[Cis-(1,2-trans-cyclohexyldiamine)]platinum (II)], the pIC50 in data set [1] is 4.60; in the data set with Colon cancer SW480 [4] it was 5.30; in the data set with Lewis lung cancer, 4.55; in the data set with Lung cancer H292 it was 4.62. The molecule also registered an LD50 value with normal mice of 0.595 mmol/kg. For the same molecule, the “Tumor inhibition rate (x ± SD)” value in the data set on colon cancer SW480 [6] (10 mg (platinum)/kg) is 55.1 ± 9.07%.

With `NC1CCCCC1N.O=C([O-])CC(CCCN1CCCCC1)C(=O)[O-].[Pt+2]` (racemic) [Compound 13, [2-(3-(1-piperidyl)propyl)-succinato].[Cis-(1,2-trans-cyclohexyldiamine)]platinum (II)], the pIC50 in data set [1] is 4.92; in the data set with Colon cancer SW480 [4], 4.02; in the data set on Lewis lung cancer, 4.49; with Lung cancer H292, 4.24. Moreover, the LD50 value in the data set with normal mice was 0.542 mmol/kg. Further, the “Tumor inhibition rate (x ± SD)” value in the data set on colon cancer SW480 [6] (10 mg (platinum)/kg) came to 56.3 ± 6.81%.

Turning to `NCCC(CC(=O)[O-])C(=O)[O-].N[C@@H]1CCCC[C@H]1N.[Pt+2]` (relative stereo) [Compound 9, [2-(2-aminoethyl)-succinato].[Cis-(1,2-trans-cyclohexyldiamine)]platinum (II)], the pIC50 was 4.77 in [1], 4.21 in the data set with Colon cancer SW480 [4], 4.08 in the data set on Lewis lung cancer and 4.59 with Lung cancer H292. The molecule further had an LD50 value with normal mice of 0.429 mmol/kg. For the same molecule, in the data set with colon cancer SW480 [6] (10 mg (platinum)/kg), the “Tumor inhibition rate (x ± SD)” value is recorded as 44.8 ± 10.8%.

As for `CNCCC1CC(=O)[O][Pt]([NH2])([NH2])[O]C1=O` (stereo not drawn) [Compound 1, [2-(2-methylaminoethyl)-succinato].[Cis-diamine]platinum (II)], the solubility (as a rule, the dissolved amount per volume that the medium holds) in “physchem” was found to be 208 mg/mL. Besides, the LD50 – broadly, the dose expected to kill half of the subjects tested – at 14 days in data set [7] amounted to 523 µmol/kg.

On to `CN(C)CCC1CC(=O)[O][Pt]([NH2])([NH2])[O]C1=O` (stereo not drawn) [Compound 2, [2-(2-dimethylaminoethyl)-succinato].[Cis-diamine]platinum (II)], for which the concentration in solution in “physchem” (solubility) was 176 mg/mL. This molecule also showed an LD50 at 14 days in [7] of 511 µmol/kg.

On to `CN(C)CCCC1CC(=O)[O][Pt]([NH2])([NH2])[O]C1=O` (stereo not drawn) [Compound 3, [2-(3-dimethylamino propyl)-succinato].[Cis-diamine]platinum (II)], for which the concentration in solution in “physchem” (solubility) was 150 mg/mL. The molecule also gave an LD50 at 14 days in data set [7] of 521 µmol/kg.

In the case of `NCCCC1CC(=O)[O][Pt]([NH2])([NH2])[O]C1=O` (stereo not drawn) [Compound 4, [2-(3-amino propyl)-succinato].[Cis-diamine]platinum (II)], in “physchem”, the concentration in solution (solubility) was 155 mg/mL. The LD50 at 14 days in [7] was found to be 556 µmol/kg.

On to `CCN(CC)CCC1CC(=O)[O][Pt]([NH2])([NH2])[O]C1=O` (stereo not drawn) [Compound 5, [2-(2-diethylaminoethyl)-succinato].[Cis-diamine]platinum (II)], for which the solubility in “physchem” was 166 mg/mL. Further, the LD50 at 14 days in [7] stood at 652 µmol/kg.

Take `CCCN(CCC)CCCC1CC(=O)[O][Pt]([NH2])([NH2])[O]C1=O` (stereo not drawn) [Compound 6, [2-(3-di-n-propylamino propyl)-succinato].[Cis-diamine]platinum (II)]: the concentration in solution in the data set “physchem” (solubility) was 130 mg/mL. In data set [7], this molecule registered an LD50 at 14 days of 449 µmol/kg.

In the data set “physchem”, `[NH2][Pt]1([NH2])[O]C(=O)CC(CCCN2CCCCC2)C(=O)[O]1` (stereo not drawn) [Compound 7, [2-(3-(1-piperidyl)-propyl)-succinato].[Cis-diamine]platinum (II)] displayed a solubility of 139 mg/mL. Besides, the LD50 at 14 days in data set [7] was 623 µmol/kg.

Turning to `[NH2][Pt]1([NH2])[O]C(=O)CC(CCCN2CCCC2)C(=O)[O]1` (stereo not drawn) [Compound 8, [2-(3-(1-pyrrolidyl)-propyl)-succinato].[Cis-diamine]platinum (II)], in the data set “physchem”, the concentration in solution (solubility) came to 135 mg/mL. Also, in [7], the LD50 at 14 days was 605 µmol/kg.

Consider `CN(C)CCCC1CC(=O)[O][Pt]2([NH]C3CCCCC3[NH]2)[O]C1=O` (stereo not drawn) [Compound 11, [2-(3-dimethylamino propyl)-succinato].[Cis-(1,2-trans-cyclohexyldiamine)]platinum (II)], for which the pIC50 in data set [1] is 4.35; in the data set with Colon cancer SW480 [4], 4.66; in the data set with Lewis lung cancer, 4.29; in the data set on Lung cancer H292, 4.89. The same molecule displayed an LD50 value in the data set with normal mice of 0.571 mmol/kg. In addition, the “Tumor inhibition rate (x ± SD)” value in the data set with colon cancer SW480 [6] (10 mg (platinum)/kg) is 46.3 ± 9.88%.

Consider `CCNCCC1CC(=O)[O][Pt]2([NH]C3CCCCC3[NH]2)[O]C1=O` (stereo not drawn) [Compound 12, [2-(2-ethylamino ethyl)-succinato].[Cis-(1,2-trans-cyclohexyldiamine)]platinum (II)], for which the pIC50 is 4.24 in [1], 4.14 with Colon cancer SW480 [4], 4.16 in the data set on Lewis lung cancer and 4.21 in the data set on Lung cancer H292. The molecule also registered an LD50 value with normal mice of 0.602 mmol/kg. Moreover, in the data set with colon cancer SW480 [6] (10 mg (platinum)/kg), the “Tumor inhibition rate (x ± SD)” value amounted to 46.8 ± 9.17%.

As for `CCN(CC)CCCC1CC(=O)[O][Pt]2([NH]C3CCC3[NH]2)[O]C1=O` (stereo not drawn) [Compound 16, [2-(3-diethylamino propyl)-succinato].[Cis-(1,2-trans-cyclobutyldiamine)]platinum (II)], the pIC50 was 4.35 in [1], 4.08 with Colon cancer SW480 [4], 4.48 in the data set on Lewis lung cancer and 5.10 in the data set on Lung cancer H292. The “Tumor inhibition rate (x ± SD)” value in the data set on breast cancer MCF-7 [2] (10 mg (platinum)/kg) is recorded as 70.4 ± 10.81 9%. Besides, the LD50 value with normal mice came to 0.623 mmol/kg. The solubility in data set [8] stood at 186 mg/mL.

For the molecule `CCN(CC)CCCCC1CC(=O)[O][Pt]([NH2])([NH2])[O]C1=O` (stereo not drawn) [Compound 27, [2-(4-diethylamino butyl)-succinato].[Cis-diamine]platinum (II) acetate], the solubility in the data set “physchem” came out at 143 mg/mL. Also, the LD50 at 14 days in [7] is 557 µmol/kg.

In the case of `CC(=O)NC(CC(=O)[O-])C(=O)[O-].NC1CCCCC1N.[Pt+2]` (stereo not shown) [Contrast Embodiment 1, reference compound], the pIC50 is 3.62 in the data set with Testis cell ST; 3.36 in [1]; 3.37 in data set [3]; 3.21 in the data set on Colon cancer SW480 [4]; 3.20 in the data set with Breast cancer MCF-7 [5]; 3.28 with Gastric cancer MGC803. For the same molecule, the pIC50 was 3.36 in the data set with Lung cancer A549; 3.33 with Esophagus cancer ECA109; 3.26 in the data set on Lewis lung cancer; 3.60 and 3.45 and 3.44 in the data set on Lung cancer H292. In addition, in the data set on normal mice, the LD50 value is recorded as 0.092 mmol/kg.
